Results taken from patent US11259522B2, “Control of resistant pests” (priority 2017, dated 2022).
Converted amounts (≈) assume the structure as drawn. “And” between values parts separate entries of the source, which are not always exact repeats. Equal values may be shown once. Read-outs that look alike come from different tables or passages of the source.

Key:
[1] = test system: M. persicae (green peach aphid) insecticide-susceptible population; assay: Leaf dip bioassay, green peach aphid, susceptible population; assay type: in vivo, Myzus persicae; settings: Susceptible population, 96 hours exposure
Description: Each colony was maintained separately on bok choi plants ([…]) within an exclusion cage in a constant temperature room at 24° C. with a photoperiod of 16:8 LD.
Laboratory bioassays were used to determine the efficacy of flavesone against M. persicae following the leaf dip method described in Moores et al. (1994, Pesticide Biochemistry and Physiology, 49, 114-120). A pilot study was first conducted which confirmed that the leaf dip method was appropriate to elicit a clear dose response for Flavocide 500EW against M. persicae, and to determine the appropriate rate range and timing of mortality assessments (scored at 24, 48, 72 & 96 hours) (data not shown).
Bioassays were then conducted to assess the efficacy of flavesone against a susceptible and resistant population of M. persicae, and to calculate LC values. The efficacy of a conventional insecticide, pirimicarb, was tested for comparison. Nine concentrations of flavesone ranging from 1×10^−3 to 10 times the proposed field rate (Table 15), and six concentrations of pirimicarb were serially diluted and tested, along with a water control, against the susceptible and resistant aphid populations. Leaf discs (25 mm diameter) cut from bok choi leaves were submerged for 1 second in the insecticide solutions, or in the water control, and placed adaxial side up on 10 g/L agar in 35 mm petri dishes. Six replicate leaf discs were prepared per treatment. Once leaves were air-dry, eight M. persicae nymphs were transferred to each insecticide-dipped leaf disc using a fine-haired paintbrush.
After aphid introduction, each petri dish was inverted onto a lid containing a 25 mm diameter filter paper to control humidity. All petri dishes were then placed into an incubator held at 18° C.±2° C. with a photoperiod of 16:8 LD cycle. At 48 & 96 hours, aphids were scored as alive (vibrant and moving freely), dead (not moving over a 5 second period), or incapacitated (inhibited movement).
Dose-response curves were generated by plotting percentage mortality against log concentration. Mortality data was analysed using a logistic regression model with random effects. Logistic regression is suited for the analysis of binary response data (i.e. dead/alive) with the random effect component of the model controlling for the non-independence of mortality scores within replicates. […] Population differences were tested by comparing the change in model deviance with and without the population factor (different regression intercepts for each population). Differences in regression slopes between populations were tested by comparing the change in model deviance with and without the population×dose interaction term.

[2] = test system: Halotydeus destructor resistant population (synthetic pyrethroid resistance); assay: Coated plastic vial bioassay, redlegged earth mite, resistant population; assay type: in vivo
Description: The test compositions included 0.1% Tween 20 non-ionic surfactant to aid the spread of insecticides when coating plastic vials. This concentration of Tween 20 has been previously shown to have no toxic effect on H. destructor. For each insecticide concentration tested, 3, 10, 30, 100, 300, 1000, 3000 and 10000 mg a.i./L (ppm), approximately 10 mL of solution was poured into a 15 mL plastic vial and swirled to ensure a complete coating, with excess liquid removed. Eight vials were coated per concentration and were left to dry overnight. Control vials were treated in the same way but with water used in place of test composition.
Eight susceptible H. destructor mites were then placed into each vial along with a leaf of common vetch (Vicia sativa). The leaf was added to provide food and increase humidity. Vials were then sealed with a lid and placed at 18° C. After 4, 6, 8 and 24 hours of exposure, the mites were scored as alive (moving freely), incapacitated (inhibited movement), or dead (no movement over a 5 second period).
The resistant population of H. destructor was collected from a lucerne paddock in the Upper South-East district of South Australia, where resistance to synthetic pyrethroids was confirmed in late 2016.
The data produced in the assays were assessed for concentrations that caused 50, 90 and 99% mortality (lethal concentration, LC), together with 95% confidence intervals (CIs) and were estimated from observations of mortality after 24 hours exposure using a binomial logistic regression (Robertson & Preisler, 1992, Pesticide Bioassays with Arthropods. CRC: Boca Raton; Venables & Ripley, 2002, Modern Applied Statistics with S. Springer: New York). Population differences were tested by comparing the change in model deviance with and without the population factor (different regression intercepts for each population). Differences in regression slopes between populations were tested by comparing the change in model deviance with and without the population×dose interaction term. The resistance ratio of the insecticide-resistant population was estimated as the ratio of its LC50 to that of the susceptible population. All analyses were performed using R 3.3. (R Core Team 2017, R: A language and environment for statistical computing. R Foundation for Statistical Computing, Vienna, Austria. http://www.R-project.org).

[3] = test system: Oryzaephilus surinamensis strain QOS302 (resistant to fenitrothion & chlorpyrifos-methyl); assay: Grain protectant bioassay on treated wheat, O. surinamensis resistant; assay type: in vivo; settings: for Progeny reduction (%): vs untreated control
[4] = test system: Rhyzopertha dominica strain QRD1440 (resistant to OP protectants and pyrethroids); assay: Grain protectant bioassay on treated wheat, resistant lesser grain borer; settings: for Live adult progeny: mean ± SE; for Progeny reduction (%): vs untreated control
[5] = test system: Aedes aegypti PRS Puerto Rican strain (synthetic pyrethroid resistant) L3 larvae; assay: Mosquito larval dose response assay, PRS strain; settings: read-out: Lethal Concentration (LC50) PRS Strain
[6] = test system: Aedes aegypti Liverpool strain (insecticide susceptible, LVP) L3 larvae; assay: Mosquito larval dose response assay, LVP strain; settings: read-out: Lethal Concentration (LC50) LVP Strain
[7] = Resistant population, 24 hours exposure
[8] = Example 6, QRD1440, 25 ppm on wheat, replicates A, B, C
[9] = Example 6, QRD1440, 50 ppm on wheat, replicates A, B, C
[10] = Example 6, QRD1440, 75 ppm on wheat, replicates A, B, C
[11] = Example 7, QRD1440, 60 ppm on wheat, replicates A, B, C
[12] = Rhyzopertha dominica, in Triticum aestivum, 336 h, read-out: Adult mortality (%)

CC(C)C(=O)C1C(=O)C(C)(C)C(=O)C(C)(C)C1=O [Flavesone, 1-isobutyroyl-3,3,5,5-tetramethylcyclohexane-2,4,6-trione] was tested, and the LC50 ([1]; Myzus persicae, foliar, read-out: LC50 (mg a.i./L)) was 2730 µg/mL (≈ 10800 µM), the “LC90 (mg a.i./L)” value [1] was 6,034 mg a.i./L and the “LC99 (mg a.i./L)” value [1] was 14,330 mg a.i./L. For the same compound, the LC50 ([2]; Halotydeus destructor, 24 h, Resistant population, 24 hours exposure, read-out: LC50 (mg a.i./L)) was 34.2 µg/mL (≈ 136 µM), the “LC50 (mg a.i./L)” value [2, 7] was 34.22 mg a.i./L and the “LC90 (mg a.i./L)” value [2, 7] was 117.89 mg a.i./L. For the same compound, the “LC99 (mg a.i./L)” value [2, 7] was 454.76 mg a.i./L, the “concentration causing 50% mortality” value ([2]; both susceptible and insecticide-resistant populations, 24 hours) was 34−40 mg a.i./L and the Live adult progeny ([3]; 25 mg/kg, mean ± SE) was 160.3 ± 15.7. The “Progeny reduction (%)” value ([3]; 25 mg/kg) was 61.2%, the “Adult mortality (%)” value ([3]; 60 mg/kg, 2 weeks, mean ± SE) was 14.7 ± 8.7% and the Live adult progeny ([3]; 60 mg/kg, mean ± SE) was 0.0 ± 0.0. The “Progeny reduction (%)” value ([3]; 60 mg/kg) was 100%, the mortality at 25 mg/kg ([3]; Oryzaephilus surinamensis, 336 h, 25 mg/kg, 2 weeks, mean ± SE, read-out: Adult mortality (%)) was 0.7% and the mortality at 60 mg/kg ([3]; Oryzaephilus surinamensis, 336 h, 60 mg/kg, 2 weeks, mean ± SE, read-out: Adult mortality (%)) was 14%. The “F1 Progeny count No. dead/total” value ([4]; Example 5, QRD1440, 25 ppm on wheat, further 6 weeks, replicates A, B, C) was 0/37 and 0/62 and 0/90, the “14 Day adult mortality No. dead (total)” value ([4]; Example 5, QRD1440, 25 ppm on wheat, replicates A, B, C) was 19/50 and 11/50 and 14/50 and the “14 day Adult Mortality No. dead/total” value [4, 8] was 22/50 and 21/50 and 30/50. The “F1 Progeny count No. dead/total” value [4, 8] was 0/20 (2×) and 0/5, the “14 day Adult Mortality No. dead/total” value [4, 9] was 47/50 (2×) and 49/50 and the “F1 Progeny count No. dead/total” value [4, 9] was 0/0. The “14 day Adult Mortality No. dead/total” value [4, 10] was 50/50, the “F1 Progeny count No. dead/total” value [4, 10] was 0/0 and the “14 day Adult Mortality No. dead/total” value [4, 11] was 50/50. For the same compound, the “F1 Progeny count No. dead/total” value [4, 11] was 0/0, the Live adult progeny ([4]; QRD1440, 25 mg/kg) was 23.7 ± 9.0 and the “Progeny reduction (%)” value ([4]; QRD1440, 25 mg/kg) was 88.8%. The “Progeny reduction (%)” value ([4]; QRD1440, 25 mg/kg, listed as flavesone) was 88%, the Live adult progeny ([4]; QRD1440, 60 mg/kg) was 0.0 ± 0.0 and the “Progeny reduction (%)” value ([4]; QRD1440, 60 mg/kg) was 100%. The mortality at 25 mg/kg [4, 12] was 56.7 ± 4.1%, the mortality at 60 mg/kg [4, 12] was 100% and the LC50 ([5]; 24 h) was 40.9 µg/mL (≈ 162 µM). For the same compound, the LC50 ([5]; 48 h) was 40.5 µg/mL (≈ 161 µM), the LC50 ([5]; 72 h) was 39.7 µg/mL (≈ 157 µM) and the LC50 ([6]; 24 h) was 40.9 µg/mL (≈ 162 µM). It also gave an LC50 ([6]; 48 h) of 40.5 µg/mL (≈ 161 µM) and an LC50 ([6]; 72 h) of 39.7 µg/mL (≈ 157 µM).
